According to PMC12444563 (ACS Omega, 2025):
Where two headings read alike, the source gives them in different places. Starred links: 1 amine or outer side, 2 acyl side, 3 side chain; linkers in the order of their positions; H or OH if unused. Non-standard residues stand in square brackets, D forms with d. Residues, ends and D or L forms follow the SMILES beside them. *: point of attachment. Paclitaxel(2'-OCO-DMEDA) = CC(=O)O[C@H]1C(=O)[C@@]2(C)[C@H]([C@H](OC(=O)c3ccccc3)[C@]3(O)C[C@H](OC(=O)[C@H](OC(=O)N(C)CCN(C)*)[C@@H](NC(=O)c4ccccc4)c4ccccc4)C(C)=C1C3(C)C)[C@]1(OC(C)=O)CO[C@@H]1C[C@@H]2O; Fmoc = O=C(OCC1c2ccccc2-c2ccccc21)*; PABC = O=C(OCc1ccc(N[*:1])cc1)[*:2]

Tests used:
[1] = Liver S9 fraction stability assay, human; type: in vitro ADME; details: male, human, liver S9 fraction, 37 °C, read-out: S9 stability (matrix: human) % remaining; for remaining at 0.5 h, 1 μM: 30 min; for remaining at 1.5 h, 1 μM: 90 min (1.5 h)
Method: The plasma stability assays were performed by Selvita SA (Krakow, Poland) following the protocol described in the Supporting Information. For the use of human plasma, consent was obtained from the subject or from the next of kin.
9. Plasma stability assays […]
Protocol for S9 fraction: a stock solution of compounds 1-4 in DMSO was incubated in human (male, pooled, commercially obtained from Xeno-tech lot: 2310104) and rat (male, pooled, commercially obtained from Xeno-tech (lot: 2210317)) S9 fraction at a final concentration of 1 μM (final concentration of DMSO = 0.5 %). The samples were incubated at 37 °C with a shaking of 450 rpm.
Aliquots of the samples were analyzed at time 0, 30 and 90 minutes by LC-MS/MS analysis.
The areas of the peak of the compounds 1-4 in the LC chromatogram were used to evaluate stability profile. The percentage of residual compounds 1-4 was calculated as the ratio between the area of the peak of the analyte and the area of the internal standard.
% residual compound = Area analyte ∙ 100
Table S7. LC-MS data of the stability assays in plasma extracts of compound 1.
Stability assays compound 1
Time Plasma stability Plasma stability S9 stability S9 stability
(min.) (matrix: rat) (matrix: human) Time (min.) (matrix: rat) (matrix: human) % remaining % remaining % remaining % remaining
Table S8. LC-MS data of the stability assays in plasma extracts of compound 2.
Stability assays compound 2

[2] = pH stability assay (buffers pH 5.4 and 7.4, UHPLC-HRMS); type: physicochemical; details: 37 °C, average of two replicates
Method: The pH stability assay was performed by incubating compounds 1–4 at 37 °C in buffers at pH 5.4 and 7.4 under gentle shaking conditions. More specifically, a solution of 20 mM AcONa and 1 mM EDTA in mQ water was used as a pH 5.4 buffer. A solution of PBS tablets in mQ water was used as a pH 7.4 buffer. A 1 mM stock solution of compounds 1–4 in dry DMSO was prepared and a […] solution was then obtained by dilution of 5.85 μL of the stock solution in 44.15 μL of dry DMSO. Then, 6 μL of the […] compound solution was diluted into 135 μL of the desired buffer, and the solution was incubated at 37 °C under gently shaking conditions. Samples aliquots (10 μL) were taken out at 15, 30 min and 1, 2, and 4 h and quenched with 10 μL of acetonitrile. The solutions were then injected in UHPLC-HRMS to monitor the stability of compounds 1–4 under different pH conditions. UHPLC-MS analyses were carried out as previously described for the Cathepsin B cleavage assay. The percentage of the residual compound was calculated as described above.
The stability of compounds 1–4 and of the free drug PTX was evaluated in vitro by UHPLC-Orbitrap analysis incubating the samples at 37 °C in buffer solutions at pH 5.4, to simulate the pH inside the cancer cells, and at physiological pH 7.4. The same buffer of the Cathepsin B cleavage assay was used for the test at pH 5.4. The percentage of residual compounds 1–4 was measured over time by calculating the ratio between the areas of the peak of the full compound at the desired time point and at time zero, and the results were compared with the percentage of residual compounds 1–4 calculated during the Cathepsin B cleavage assay (Tables S6).

[3] = target: T1, bovine spleen Cathepsin B (Bos taurus, UniProt P07688); assay: Cathepsin B cleavage assay (UHPLC-HRMS Orbitrap analysis); type: biochemical; details: for % residual compound, Average %: 37 °C, pH 5.4, 5 μM, triplicate
T1 construct: bovine spleen Cathepsin B (SigmaAldrich C6286, ≥10 units/mg protein); purchased SigmaAldrich C6286; host or cells: bovine spleen (tissue-derived)
Method: The Cathepsin B cleavage assay was performed by incubating compounds 1–4 at 37 °C under gently shaking conditions in the presence of the active form of Cathepsin B. More specifically, 122.4 μL of an enzyme-activating solution (composed of 7.48 mg of L-cysteine dissolved in 2 mL of a buffer solution containing 20 mM NaOAc, 1 mM EDTA, pH 5.4 to give a final cysteine concentration of 30.88 mM) was mixed with 12.6 μL of enzyme stock solution, previously prepared by solubilization of bovine spleen Cathepsin B (SigmaAldrich C6286, ≥10 units/mg protein) in 1 mL of buffer solution (without cysteine) to give a concentration of enzyme stock solution of 12 units/mL. After the dilution, the final concentration of Cathepsin B was 1.12 u/mL. Then, the diluted enzyme solution was incubated at 37 °C for 15 min to activate Cathepsin B. After 15 min, 6 μL of 117 μM compound solution, previously prepared by diluting 5.85 μL of 1 mM stock solution of the compound in 44.15 μL of dry DMSO (giving a 117 μM solution), was added to the test tube and the cleavage assay solution was incubated at 37 °C under gentle shaking conditions. […] The solutions were then centrifuged for 10 min at 6000 rpm. Blank solutions were prepared for each compound by dilution of 6 μL of a 117 μM compound solution into 135 μL of an enzyme-activating solution. UHPLC-MS analyses were carried out using a Vanquish UHPLC System (Thermo Fisher Scientific) and Orbitrap Exploris 120 (Thermo Fisher Scientific). Thermo Scientific Xcalibur software was used to control the instruments and acquire the data. Freestyle 1.8 software was used for processing the data. UHPLC chromatographic separations were performed on a reversed-phase column Accucore C18 50 × 2.1 mm, 2.6 μm (Thermo Fisher Scientific). A gradient system was used with the mobile phase consisting of solvent A: H2O + 0.05% formic acid and solvent B: acetonitrile. The areas of the peak of compounds 1–4 in the extracted ion chromatogram were used to evaluate the kinetics of the cleavage process. The percentage of residual compound was calculated as the ratio between the areas of the peak of the full compound at the desired time point and in the blank analysis. %Residualcompound=areacompoundatthedesiredtimepoint/areacompoundintheblanksolution×100

[4] = PBS pH 7.4, pH 7.4 PBS, 30 min, read-out: Stability pH 7.4, % residual compound
[5] = 2 min incubation with Cathepsin B
[6] = 15 min incubation with Cathepsin B
[7] = 30 min incubation with Cathepsin B
[8] = 60 min incubation with Cathepsin B
[9] = 120 min incubation with Cathepsin B

Row | SMILES | remaining at 0.5 h, 1 μM [1] | remaining at 1.5 h, 1 μM [1] | remaining at 0.5 h, 4.98 µM [2, 4] | Stability pH 5.4, % residual compound ([2]; pH 5.4 buffer, 30 min) | Stability pH 7.4, % residual compound ([2]; pH 7.4 PBS, 240 min) | % residual compound, Average % [3, 5] | % residual compound, Average % [3, 6] | % residual compound, Average % [3, 7] | % residual compound, Average % [3, 8] | % residual compound, Average % [3, 9] | % residual compound, % R1 ([3]; replicate R1, 2 min) | % residual compound, % R1 ([3]; replicate R1, 15 min) | % residual compound, % R1 ([3]; replicate R1, 30 min) | % residual compound, % R1 ([3]; replicate R1, 60 min) | % residual compound, % R1 ([3]; replicate R1, 120 min) | % residual compound, % R1 ([3]; replicate R1, 240 min) | % residual compound, % R3 ([3]; replicate R3, 2 min) | % residual compound, % R3 ([3]; replicate R3, 15 min) | % residual compound, % R3 ([3]; replicate R3, 30 min) | % residual compound, % R3 ([3]; replicate R3, 60 min) | further results
1 | CC(=O)O[C@H]1C(=O)[C@@]2(C)[C@H]([C@H](OC(=O)c3ccccc3)[C@]3(O)C[C@H](OC(=O)[C@H](OC(=O)N(C)CCN(C)C(=O)OCc4ccc(NC(=O)CNC(=O)[C@H](CC(C)C)NC(=O)[C@@H]5CCCN5C(=O)CNC(=O)OCC5c6ccccc6-c6ccccc65)cc4)[C@@H](NC(=O)c4ccccc4)c4ccccc4)C(C)=C1C3(C)C)[C@]1(OC(C)=O)CO[C@@H]1C[C@@H]2O [Compound 1, Fmoc-GPLG-PABC-diamine-PTX] (Fmoc-GPLG[PABC]-{Paclitaxel(2'-OCO-DMEDA)}) | 104% | 95% | 115% | 93.60% | 113.04% | 94.40% | 80.50% | 73.35% | 68.45% | 65.40% | 108.85% | 85.04% | 73.97% | 68.69% | 69.51% | 56.09% | 97.22% | 78.25% | 74.08% | 69.05% | Stability pH 5.4, % residual compound ([2]; pH 5.4 buffer, 120 min): 93.87%; Stability pH 5.4, % residual compound ([2]; pH 5.4 buffer, 240 min (4 h)): 93.78%; Stability pH 7.4, % residual compound ([2]; pH 7.4 PBS, 120 min): 97.00%; peak of free Paclitaxel in the incubated solution ([3]; 4 h incubation with Cathepsin B, HRMS): not possible to observe; peak of free PTX in the incubated solution ([3]; 24 h incubation with Cathepsin B, HRMS): confirmed the presence; cleavage kinetics compared within compounds 1-4 ([3]; Cathepsin B, compound 1: initial time points 2 min to 1 h, compound 2: over 4 h): fastest; % residual compound, % R3 ([3]; replicate R3, 120 min): 67.07%; % residual compound, % R3 ([3]; replicate R3, 240 min): 70.97%
2 | CC(=O)O[C@H]1C(=O)[C@@]2(C)[C@H]([C@H](OC(=O)c3ccccc3)[C@]3(O)C[C@H](OC(=O)[C@H](OC(=O)N(C)CCN(C)C(=O)OCc4ccc(NC(=O)CNC(=O)[C@H](CC(C)C)NC(=O)[C@H](Cc5ccccc5)NC(=O)CNC(=O)OCC5c6ccccc6-c6ccccc65)cc4)[C@@H](NC(=O)c4ccccc4)c4ccccc4)C(C)=C1C3(C)C)[C@]1(OC(C)=O)CO[C@@H]1C[C@@H]2O [Compound 2, Fmoc-GFLG-PABC-diamine-PTX] (Fmoc-GFLG[PABC]-{Paclitaxel(2'-OCO-DMEDA)}) | 133% | 95.2% | 90.6% | 92.49% | 91.99% | 99.63% | 98.45% | 95.35% | 95.89% | 94.14% | 99.33% | 98.52% | 92.26% | 92.45% | 99.27% | 96.36% | 104.39% | 102.02% | 95.37% | 97.64% | remaining at 2 h, 4.98 µM ([2]; PBS pH 7.4, pH 7.4 PBS, 120 min, read-out: Stability pH 7.4, % residual compound): 90.5%; remaining at 2 h, 4.98 µM ([2]; acetate/EDTA buffer pH 5.4, pH 5.4 buffer, 120 min, read-out: Stability pH 5.4, % residual compound): 85.4%; remaining at 4 h, 4.98 µM ([2]; acetate/EDTA buffer pH 5.4, pH 5.4 buffer, 240 min (4 h), read-out: Stability pH 5.4, % residual compound): 86.8%; % residual compound, % R3 ([3]; replicate R3, 120 min): 90.86%; % residual compound, % R3 ([3]; replicate R3, 240 min): 89.52%
